{
  "source": "patent EP0378255B1",
  "about": "“2-Aminopyrimidinone derivatives” (JANSSEN PHARMACEUTICA N.V., priority 1989, dated 1990)",
  "system": "Wistar rats",
  "test": "Sleep-wakefulness patterns in the rat (polygraphic EEG/EOG/EMG recording)",
  "format": "in vivo",
  "settings": "for MEAN DURATION OF EPISODES PS / MEAN DURATION OF EPISODES SWS1 / MEAN DURATION OF EPISODES SWS2 / MEAN DURATION OF EPISODES W / NUMBER OF EPISODES PS / NUMBER OF EPISODES SWS1 / NUMBER OF EPISODES SWS2 / NUMBER OF EPISODES W: means ± SEM of 10 rats",
  "method": "Under pentobarbital anesthesia (50 mg/kg i.p.) 10 adult male Wistar rats weighing 240 to 260 g were chronically implanted for standard polygraphic recording of electroencephalogram (EEG), electro-oculogram (EOG) and electromyogram (EMG). After a 8-10 day recovery period from surgery and habituation to the recording conditions ( 12 h light-dark schedule, light on at 9:00 am.), pharmacological tests were started. The animals received 0.04, 0.16 or 0.63 mg/kg of compound 39 dissolved in 1 mM tartaric acid and injected i.p. at the onset of the light period. A minimum of 3 recovery days was allowed between two treatments. Polygraphic recordings were scored visually and classified as being either wakefulness (W), light slow wave sleep (SWS1), deep slow wave sleep (SWS2) or paradoxical sleep (PS). Sleep-wakefulness parameters were analyzed for each of the two successive 4 h periods following the treatment and compared to baseline (vehicle injection under the same conditions). The amounts of sleep and wakefulness states were expressed as percentage of baseline recordings which represented means of two baseline values per animal. Statistical tests were performed by means of the two-tailed Student t-test.",
  "key": {"[1]": {"settings": "0-4h after treatment, 0.04 mg/kg i.p."}, "[2]": {"settings": "0-4h after treatment, 0.16 mg/kg i.p."}, "[3]": {"settings": "0-4h after treatment, 0.63 mg/kg i.p."}, "[4]": {"settings": "4-8h after treatment, 0.04 mg/kg i.p."}, "[5]": {"settings": "4-8h after treatment, 0.16 mg/kg i.p."}, "[6]": {"settings": "4-8h after treatment, 0.63 mg/kg i.p."}},
  "data": [
    {"compound": "CNc1nc(C)c(CCN2CCC(=C(c3ccc(F)cc3)c3ccc(F)cc3)CC2)c(=O)n1C", "note": "[Compound 39, 5-[2-[4-[bis(4-fluorophenyl)methylene]-1-piperidinyl]ethyl]-3,6-dimethyl-2-(methylamino)-4(3H)-pyrimidinone]", "values": [
      {"measurement": "MEAN DURATION OF EPISODES PS", "setting": "[1]", "result": "2.1 ± 0.2", "unit": "min"},
      {"measurement": "MEAN DURATION OF EPISODES SWS1", "setting": "[1]", "result": "0.8 ± 0.0", "unit": "min"},
      {"measurement": "MEAN DURATION OF EPISODES SWS2", "setting": "[1]", "result": "4.7 ± 0.5", "unit": "min"},
      {"measurement": "MEAN DURATION OF EPISODES W", "setting": "[1]", "result": "2.6 ± 0.3", "unit": "min"},
      {"measurement": "NUMBER OF EPISODES PS", "setting": "[1]", "result": "4±1"},
      {"measurement": "NUMBER OF EPISODES SWS1", "setting": "[1]", "result": "33±3"},
      {"measurement": "NUMBER OF EPISODES SWS2", "setting": "[1]", "result": "32±3"},
      {"measurement": "NUMBER OF EPISODES W", "setting": "[1]", "result": "26±3"},
      {"measurement": "MEAN DURATION OF EPISODES PS", "setting": "[2]", "result": "2.0 ± 0.3", "unit": "min"},
      {"measurement": "MEAN DURATION OF EPISODES SWS1", "setting": "[2]", "result": "0.9 ± 0.0", "unit": "min"},
      {"measurement": "MEAN DURATION OF EPISODES SWS2", "setting": "[2]", "result": "5.8 ± 0.5", "unit": "min"},
      {"measurement": "MEAN DURATION OF EPISODES W", "setting": "[2]", "result": "2.9 ± 0.3", "unit": "min"},
      {"measurement": "NUMBER OF EPISODES PS", "setting": "[2]", "result": "3±1"},
      {"measurement": "NUMBER OF EPISODES SWS1", "setting": "[2]", "result": "28±2"},
      {"measurement": "NUMBER OF EPISODES SWS2", "setting": "[2]", "result": "27±2"},
      {"measurement": "NUMBER OF EPISODES W", "setting": "[2]", "result": "23±1"},
      {"measurement": "MEAN DURATION OF EPISODES PS", "setting": "[3]", "result": "2.2 ± 0.4", "unit": "min"},
      {"measurement": "MEAN DURATION OF EPISODES SWS1", "setting": "[3]", "result": "0.8 ± 0.0", "unit": "min"},
      {"measurement": "MEAN DURATION OF EPISODES SWS2", "setting": "[3]", "result": "5.9 ± 0.4", "unit": "min"},
      {"measurement": "MEAN DURATION OF EPISODES W", "setting": "[3]", "result": "2.7 ± 0.2", "unit": "min"},
      {"measurement": "NUMBER OF EPISODES PS", "setting": "[3]", "result": "3±1"},
      {"measurement": "NUMBER OF EPISODES SWS1", "setting": "[3]", "result": "26±2"},
      {"measurement": "NUMBER OF EPISODES SWS2", "setting": "[3]", "result": "27±2"},
      {"measurement": "NUMBER OF EPISODES W", "setting": "[3]", "result": "22±1"},
      {"measurement": "doses giving significant effects", "setting": "0.04, 0.16 or 0.63 mg/kg i.p., two-tailed Student t-test", "result": "Significant effects were observed from the lowest dose upwards"},
      {"measurement": "dose-related response", "setting": "0.04 to 0.63 mg/kg i.p.", "result": "a clear dose-related response was obtained"},
      {"measurement": "sleep-wakefulness changes (SWS2, W, SWS1, PS)", "setting": "0.04 to 0.63 mg/kg i.p. at the onset of the light period, 8 h recording period", "result": "dose-dependent increase of SWS2 combined with a dose-related deficit in W, SWS1 and PS"},
      {"measurement": "SWS2 episodes: duration and number", "setting": "0.04 to 0.63 mg/kg i.p., summary of Table 7", "result": "marked prolongation of SWS2 episodes, whereas the number of episodes was reduced"},
      {"measurement": "MEAN DURATION OF EPISODES PS", "setting": "[4]", "result": "1.9 ± 0.1", "unit": "min"},
      {"measurement": "MEAN DURATION OF EPISODES SWS1", "setting": "[4]", "result": "0.7 ± 0.0", "unit": "min"},
      {"measurement": "MEAN DURATION OF EPISODES SWS2", "setting": "[4]", "result": "3.5 ± 0.2", "unit": "min"},
      {"measurement": "MEAN DURATION OF EPISODES W", "setting": "[4]", "result": "2.0 ± 0.2", "unit": "min"},
      {"measurement": "NUMBER OF EPISODES PS", "setting": "[4]", "result": "13±1"},
      {"measurement": "NUMBER OF EPISODES SWS1", "setting": "[4]", "result": "35±3"},
      {"measurement": "NUMBER OF EPISODES SWS2", "setting": "[4]", "result": "41±3"},
      {"measurement": "NUMBER OF EPISODES W", "setting": "[4]", "result": "26±2"},
      {"measurement": "MEAN DURATION OF EPISODES PS", "setting": "[5]", "result": "2.1 ± 0.1", "unit": "min"},
      {"measurement": "MEAN DURATION OF EPISODES SWS1", "setting": "[5]", "result": "0.7 ± 0.0", "unit": "min"},
      {"measurement": "MEAN DURATION OF EPISODES SWS2", "setting": "[5]", "result": "3.9 ± 0.3", "unit": "min"},
      {"measurement": "MEAN DURATION OF EPISODES W", "setting": "[5]", "result": "2.0 ± 0.3", "unit": "min"},
      {"measurement": "NUMBER OF EPISODES PS", "setting": "[5]", "result": "12±1"},
      {"measurement": "NUMBER OF EPISODES SWS1", "setting": "[5]", "result": "35±2"},
      {"measurement": "NUMBER OF EPISODES SWS2", "setting": "[5]", "result": "39±2"},
      {"measurement": "NUMBER OF EPISODES W", "setting": "[5]", "result": "23±2"},
      {"measurement": "MEAN DURATION OF EPISODES PS", "setting": "[6]", "result": "2.1 ± 0.1", "unit": "min"},
      {"measurement": "MEAN DURATION OF EPISODES SWS1", "setting": "[6]", "result": "0.7 ± 0.0", "unit": "min"},
      {"measurement": "MEAN DURATION OF EPISODES SWS2", "setting": "[6]", "result": "3.7 ± 0.2", "unit": "min"},
      {"measurement": "MEAN DURATION OF EPISODES W", "setting": "[6]", "result": "1.9 ± 0.2", "unit": "min"},
      {"measurement": "NUMBER OF EPISODES PS", "setting": "[6]", "result": "12±1"},
      {"measurement": "NUMBER OF EPISODES SWS1", "setting": "[6]", "result": "34±2"},
      {"measurement": "NUMBER OF EPISODES SWS2", "setting": "[6]", "result": "40±2"},
      {"measurement": "NUMBER OF EPISODES W", "setting": "[6]", "result": "26±2"},
      {"measurement": "effective dose, lower than that of ritanserin by", "setting": "comparison with ritanserin", "result": 10, "unit": "fold"},
      {"measurement": "sleep-wakefulness response", "setting": "doses of 0.04 and 0.16 mg/kg i.p.", "result": "significant sleep-wakefulness response"}
    ]}
  ]
}
